Data: BindingDB's records for doi:10.1021/jm201482p (University of Nebraska Medical Center, 2012)

Biological target: Cholinesterase (Homo sapiens, UniProt P06276)
Test: Inhibition of human BChE after 30 mins by microplate reader method

Sequence of Cholinesterase (P06276 whole entry): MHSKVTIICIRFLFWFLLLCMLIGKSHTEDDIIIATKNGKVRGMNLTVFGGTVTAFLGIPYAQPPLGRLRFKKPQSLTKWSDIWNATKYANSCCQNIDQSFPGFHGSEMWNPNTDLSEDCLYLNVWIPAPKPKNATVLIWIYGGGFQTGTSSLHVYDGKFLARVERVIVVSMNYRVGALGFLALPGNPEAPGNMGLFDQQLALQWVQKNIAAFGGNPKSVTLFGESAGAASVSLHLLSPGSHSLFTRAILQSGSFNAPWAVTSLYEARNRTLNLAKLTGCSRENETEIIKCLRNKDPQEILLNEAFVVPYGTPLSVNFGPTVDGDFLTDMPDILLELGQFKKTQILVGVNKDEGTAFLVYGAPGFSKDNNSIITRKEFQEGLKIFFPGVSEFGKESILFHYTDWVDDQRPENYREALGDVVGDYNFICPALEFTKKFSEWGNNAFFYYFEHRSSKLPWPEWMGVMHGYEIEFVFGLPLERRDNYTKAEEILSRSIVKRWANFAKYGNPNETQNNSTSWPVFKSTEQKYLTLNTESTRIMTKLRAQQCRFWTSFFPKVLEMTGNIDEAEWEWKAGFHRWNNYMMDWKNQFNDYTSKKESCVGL

CC(C)(C)c1cc(C(C)(C)C)c2c(c1F)COP(=O)(OC[C@H]1O[C@@H](n3cc(I)c(=O)[nH]c3=O)C[C@@H]1O)O2 (stereo partly specified)
IC50: > 60 mM
